We go through seven compounds from paper PMC7660689, “Catechol-Type Flavonoids from the Branches of Elaeagnus glabra f. oxyphylla Exert Antioxidant Activity and an Inhibitory Effect on Amyloid-β Aggregation” (Molecules, 2020).

The IC50 is the concentration at which inhibition is half-maximal. What is called melting point is the temperature, or range, at which the solid turns liquid.

Some results are limits rather than exact numbers.

The nature of series [1]: ABTS radical scavenging assay. Conditions: for ABTS radical scavenging activity: compounds at 100 μM; for Concentration at which ABTS radical scavenging activity reached 100% / IC50: isolated compounds; for IC50: 1.5625-100 µM. Here is the method: ABTS and DPPH radical scavenging assays were performed with reference to the modified method described in previously published reports to examine the antioxidant activities. […] Subsequently, the reactant was diluted 25-fold to adjust its absorbance at 734 nm to 0.7 by using a spectrophotometer (Benchmark Plus, Bio-Rad, Hercules, CA). […] The absorbance was measured at 517 nm. Ascorbic acid was used as a positive control for antioxidative activity.

The target of another series is T1, Aβ1–42 peptides (Homo sapiens, UniProt P05067).
T1 construct: purchased AnaSpec
In words: Thioflavin T (ThT) Aβ aggregation assay. Type of series: biochemical. To be noted: for Inhibition of Aβ aggregation compared with positive control morin: compounds at 100 μM, morin 100 μM; for IC50: isolated compounds, 6.25-100 µM, ThT fluorescence, read-out: Inhibition of Aβ aggregation IC50. Here is the method:
To measure the inhibitory effect on Aβ1–42 aggregation, the SensoLyte® Thioflavin T (ThT) β-Amyloid aggregation kit (AnaSpec, Fremont, CA, USA) was used according to the modified manufacturer’s instructions. This assay is based on the property of ThT dye that increases fluorescence when bound to the aggregates of Aβ1–42 peptides. The detailed protocol is described in a previous report. Morin (100 μM) was used as a positive control for the inhibition of Aβ aggregation. Experiments were performed in triplicate and independently repeated three times. The inhibition rate (%) of Aβ aggregation was calculated according to the following equation:(1) Inhibition of Aβ aggregation %=1−Fluorescence of Aβ−treated sample/Fluorescence of untreated sample×100

Series [2] is described as follows: DPPH radical scavenging assay. Conditions: for DPPH radical scavenging activity: concentrations from 1.5625 to 100 µM; for IC50: isolated compounds, 1.5625-100 µM. The procedure:
ABTS and DPPH radical scavenging assays were performed with reference to the modified method described in previously published reports to examine the antioxidant activities. In the ABTS assay, 7 mM ABTS aqueous solution and 2.45 mM potassium persulfate were reacted for 12–16 h in the dark at room temperature to prepare the ABTS^•+ solution. Subsequently, the reactant was diluted 25-fold to adjust its absorbance at 734 nm to 0.7 by using a spectrophotometer (Benchmark Plus, Bio-Rad, Hercules, CA). The sample solution (100 μL) and ABTS^•+ solution (100 μL) were mixed and incubated for 5 min at room temperature in the dark.
To determine the DPPH radical scavenging activity, the sample solution (100 μL) and 0.15 mM DPPH solution (100 μL) were mixed and incubated for 3 h at room temperature in the dark. The absorbance was measured at 517 nm. Ascorbic acid was used as a positive control for antioxidative activity. The radical scavenging activity (%) was calculated using the following equation:(2) Radical scavenging activity %=1−Absorbance of sample/Absorbance of control × 100
In general terms: The DPPH test is a chemical assay of radical scavenging.

T1 sequence (P05067 672-713 limits assumed): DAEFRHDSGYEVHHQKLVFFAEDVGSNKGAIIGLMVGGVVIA

As for `O=C(O)c1ccc(O)cc1` [Compound 1, 4-hydroxybenzoic acid], the “ABTS radical scavenging activity” value in series [1] is given as under 66%.

Take `O=C(O)c1ccccc1O` [Compound 2, salicylic acid]: the “ABTS radical scavenging activity” value in series [1] is given as under 66%.

Consider `Oc1cc(O)c2c(c1)O[C@H](c1ccc(O)c(O)c1)[C@@H](O)[C@@H]2c1c(O)cc(O)c2c1O[C@H](c1ccc(O)c(O)c1)[C@@H](O)C2` [Compound 8, procyanidin B3], for which, on Aβ1–42 peptides, the “Inhibition of Aβ aggregation compared with positive control morin” value is recorded as “comparably to morin” and the IC50 amounted to 14.6 µM. Also, in series [1], the “Concentration at which ABTS radical scavenging activity reached 100%” value turned out to be 12.5 µM and the IC50 turned out to be 3.21 µM. In series [2], the “DPPH radical scavenging activity” value is given as under 52% and the IC50 stood at 54.9 µM.

With `Oc1cc(O)c2c(c1)O[C@H](c1ccc(O)c(O)c1)[C@@H](O)[C@@H]2c1c(O)cc(O)c2c1O[C@H](c1ccc(O)c(O)c1)[C@H](O)C2` [Compound 9, procyanidin B4], on Aβ1–42 peptides, the “Inhibition of Aβ aggregation compared with positive control morin” value is “comparably to morin” and the half-maximal inhibitory concentration (IC50) was 32.6 µM. Besides, in series [1], the “Concentration at which ABTS radical scavenging activity reached 100%” value worked out at 12.5 µM and the IC50 stood at 3.44 µM. Also, in series [2], the “DPPH radical scavenging activity” value is reported as under 52% and the IC50 is over 100 µM.

In the case of `O=C(C=Cc1ccc(O)cc1)OCC1OC(Oc2c(-c3ccc(O)c(O)c3)oc3cc(O)cc(O)c3c2=O)C(O)C(O)C1O` (stereo not drawn) [Compound 13, helichrysoside], on Aβ1–42 peptides, the “Inhibition of Aβ aggregation compared with positive control morin” value is given as “comparably to morin” and the IC50 amounted to 44.5 µM. Further, in series [1], the “Concentration at which ABTS radical scavenging activity reached 100%” value is 25 µM and the IC50 was found to be 4.61 µM. Besides, in series [2], the “DPPH radical scavenging activity” value was under 52% and the IC50 is over 100 µM.

`C=C(C)[C@@H]1CC[C@]2(C(=O)O)CC[C@]3(C)C(CCC4[C@@]5(C)CC[C@H](OC(=O)/C=C/c6ccc(O)c(O)c6)C(C)(C)C5CC[C@]43C)C12` (stereo partly drawn) [Compound 14, betulinic acid-3-O-trans-caffeate]: the melting point came to 270 °C. In series [1], the “ABTS radical scavenging activity” value was under 66%.

`C[C@@H]1CC[C@]2(C(=O)O)CC[C@]3(C)C(=CCC4[C@@]5(C)CC[C@H](OC(=O)/C=C/c6ccc(O)c(O)c6)C(C)(C)C5CC[C@]43C)C2[C@H]1C` (stereo partly drawn) [Compound 15, ursolic acid-3-O-trans-caffeate] returned a melting point of over 300 °C. Also, in series [1], the “ABTS radical scavenging activity” value is listed as under 66%.
